Structures can show the parent of a compound that is named as a salt.
How the values were obtained:
[1] = target: T1, ALDH1A1 enzyme (Homo sapiens, UniProt P00352); assay: ALDH1A1 enzymatic assay (in vitro); type: biochemical; conditions: ALDH1A1 enzyme 20 nM, NAD+ 1 mM, propionaldehyde 80 μM; read-out: ALDH1A1 IC50
T1 sequence (P00352 1-501): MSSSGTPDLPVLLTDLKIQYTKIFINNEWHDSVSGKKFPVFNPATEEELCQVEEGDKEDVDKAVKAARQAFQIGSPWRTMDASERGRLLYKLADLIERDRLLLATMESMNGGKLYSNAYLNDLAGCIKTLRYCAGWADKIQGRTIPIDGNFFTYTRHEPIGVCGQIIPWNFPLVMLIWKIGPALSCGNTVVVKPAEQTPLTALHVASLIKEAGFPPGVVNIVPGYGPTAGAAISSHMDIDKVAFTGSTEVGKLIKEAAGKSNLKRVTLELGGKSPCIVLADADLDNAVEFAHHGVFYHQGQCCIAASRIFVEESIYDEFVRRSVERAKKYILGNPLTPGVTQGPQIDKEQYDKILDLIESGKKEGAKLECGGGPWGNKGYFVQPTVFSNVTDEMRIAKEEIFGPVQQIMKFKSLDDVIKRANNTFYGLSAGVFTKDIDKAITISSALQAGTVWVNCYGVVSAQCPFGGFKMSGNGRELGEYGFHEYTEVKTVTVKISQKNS
Protocol: Example 358. ALDH1A1 Enzymatic Assay (In Vitro Assay)
3 μL of ALDH1A1 enzyme (final concentration 20 nM) or assay buffer (100 mM HEPES pH 7.5 with 0.01% Tween 20) were dispensed into a 1,536-well solid-bottom black plate (Greiner Bio One, Monroe, N.C.) followed by pin-tool transfer (23 nL) of candidate inhibitors (final concentration range 968 pM to 57.2 μM) and control (Bay 11-7085, final concentration range 1.31 nM to 2.86 μM). Samples were incubated (RT, protected from light) for 15 minutes followed by a 1 μL substrate addition of NAD^+ and Propionaldehyde (final concentrations of 1 mM and 80 μM, respectively). Plates were centrifuged at 1,000 rpm for 15 seconds, then read in kinetic mode on a ViewLux High-throughput CCD imager (Perkin-Elmer) equipped with standard UV fluorescence optics (340 nm excitation, 450 nm emission) for 10 minutes. The change in fluorescence intensity over the 10-minute reaction period was normalized against no-inhibitor and no-enzyme controls and the resulting percent inhibition data were fitted for biological activity.

[2] = system: MIA PaCa-2 cells; assay: MIA PaCa2 cell-based assay (1,536-well high-content imaging ALDEFLUOR assay); set-up: species or system human; conditions: ALDEFLUOR BAAA substrate 500 nM, 30 minutes
Summary of the method: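 High-content ALDEFLUOR imaging readout: BAA-retaining cells in FITC channel scored against Hoechst-counted nuclei. Before imaging, MIA PaCa-2 cells seeded at 1,000 per well received final 500 nM BAAA and 0.5 nM Hoechst with compounds in 16-point series (1.4 nM to 47.8 μM), 30 min, 37° C.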

| IC50 [1] [µM] | IC50 [2] [µM] | IC50 ([2]; Homo sapiens, 0.5 h) [µM] | Molecule |
| --- | --- | --- | --- |
| < 0.5 | < 0.5 |  | 4-(4-cyano-4-phenylpiperidin-1-yl)-6-fluoro-N-((1R,3R)-3-hydroxycyclobutyl)quinoline-3-carboxamide [Cpd. 330] |
| 1 to 10 |  | > 10 | CS(=O)(=O)N1CCN(C(=O)c2cnc3ccc(F)cc3c2N2CCN(S(C)(=O)=O)CC2)CC1 [Cpd. 307, (6-fluoro-4-(4-(methylsulfonyl)piperazin-1-yl)quinolin-3-yl)(4-(methylsulfonyl)piperazin-1-yl)methanone] |
| < 0.5 |  | < 0.5 | CS(=O)(=O)C1CCN(C(=O)c2cnc3ccc(Cl)cc3c2N2CCC(C#N)(c3ccccc3)CC2)CC1 [Cpd. 310, 1-(6-chloro-3-(4-(methylsulfonyl)piperidine-1-carbonyl)quinolin-4-yl)-4-phenylpiperidine-4-carbonitrile] |
| < 0.5 |  | < 0.5 | CN(C)C(=O)N1CCN(C(=O)c2cnc3ccc(Cl)cc3c2N2CCC(C#N)(c3ccccc3)CC2)CC1 [Cpd. 312, 4-(6-chloro-4-(4-cyano-4-phenylpiperidin-1-yl)quinoline-3-carbonyl)-N,N-dimethylpiperazine-1-carboxamide] |
| < 0.5 |  | < 0.5 | CN(C)S(=O)(=O)N1CCN(C(=O)c2cnc3ccc(Cl)cc3c2N2CCC(C#N)(c3ccccc3)CC2)CC1 [Cpd. 314, 4-(6-chloro-4-(4-cyano-4-phenylpiperidin-1-yl)quinoline-3-carbonyl)-N,N-dimethylpiperazine-1-sulfonamide] |
| < 0.5 |  | < 0.5 | N#CC1(c2ccccc2)CCN(c2c(C(=O)N[C@H]3CC[C@H](O)CC3)cnc3ccc(F)cc23)CC1 [Cpd. 325, 4-(4-cyano-4-phenylpiperidin-1-yl)-6-fluoro-N-((1R,4R)-4-hydroxycyclohexyl)quinoline-3-carboxamide] |
| < 0.5 |  | 1 to 10 | N#CC1(c2ccccc2)CCN(c2c(C(=O)N3CC(O)C3)cnc3ccc(F)cc23)CC1 [Cpd. 326, 1-(6-fluoro-3-(3-hydroxyazetidine-1-carbonyl)quinolin-4-yl)-4-phenylpiperidine-4-carbonitrile] |
| 1 to 10 |  |  | COc1ccc2ncc(C(=O)NC3CCN(C)CC3)c(N3CCC4(CC3)OCCO4)c2c1 [Example 16, 6-methoxy-N-(1-methylpiperidin-4-yl)-4-(1,4-dioxa-8-azaspiro[4.5]decan-8-yl)quinoline-3-carboxamide, TFA] |
| > 10 |  |  | COc1ccc2ncc(C(=O)N3CCN(C(=O)C4CC4)CC3)c(N3CCN(c4ccncc4)CC3)c2c1 [Example 20, (4-(cyclopropanecarbonyl)piperazin-1-yl)(6-methoxy-4-(4-(pyridin-4-yl)piperazin-1-yl)quinolin-3-yl)methanone, TFA] |
| > 10 |  |  | COc1ccc2ncc(C(=O)N3CCN(C(=O)C4CC4)CC3)c(NC3CCN(C)CC3)c2c1 [Example 21, (4-(cyclopropanecarbonyl)piperazin-1-yl)(6-methoxy-4-((1-methylpiperidin-4-yl)amino)quinolin-3-yl)methanone, TFA] |
| > 10 |  |  | COc1ccc2ncc(C(=O)N3CCN(C(=O)C4CC4)CC3)c(NC3CCC3)c2c1 [Example 22, (4-(cyclobutylamino)-6-methoxyquinolin-3-yl)(4-(cyclopropanecarbonyl)piperazin-1-yl)methanone, TFA] |
| > 10 |  |  | COc1ccc2ncc(C(=O)N3CCN(C(=O)C4CC4)CC3)c(N3C[C@@H](C)O[C@@H](C)C3)c2c1 [Example 34, (4-(cyclopropanecarbonyl)piperazin-1-yl)(44(2S*,6R*)-2,6-dimethylmorpholino)-6-methoxyquinolin-3-yl)methanone] |
| > 10 |  |  | COc1ccc2ncc(C(=O)N3CCN(C(=O)C4CC4)CC3)c(-n3cc(C)cn3)c2c1 [Example 35, (4-(cyclopropanecarbonyl)piperazin-1-yl)(6-methoxy-4-(4-methyl-1H-pyrazol-1-yl)quinolin-3-yl)methanone] |
| > 10 |  |  | COc1ccc2ncc(C(=O)N3CCN(C(=O)C4CC4)CC3)c(-c3cnn(C)c3)c2c1 [Example 41, (4-(cyclopropanecarbonyl)piperazin-1-yl)(6-methoxy-4-(1-methyl-1H-pyrazol-4-yl)quinolin-3-yl)methanone] |
| > 10 |  |  | C[C@@H]1CN(c2c(C(=O)N3CCN(C(=O)C4CC4)CC3)cnc3ccc(F)cc23)C[C@H](C)O1 [Example 60, (4-(cyclopropanecarbonyl)piperazin-1-yl)(44(2S*,6R*)-2,6-dimethylmorpholino)-6-fluoroquinolin-3-yl)methanone] |
|  |  | < 0.5 | CN(C)C(=O)N1CCN(C(=O)c2cnc3ccc(F)cc3c2N2CCC(C#N)(c3ccccc3)CC2)CC1 [Example 272, 4-(4-(4-cyano-4-phenylpiperidin-1-yl)-6-fluoroquinoline-3-carbonyl)-N,N-dimethylpiperazine-1-carboxamide] |
|  |  | < 0.5 | CS(=O)(=O)N1CCN(C(=O)c2cnc3ccc(F)cc3c2N2CCC(C#N)(c3ccccc3F)CC2)CC1 [Example 274, 1-(6-fluoro-3-(4-(methylsulfonyl)piperazine-1-carbonyl)quinolin-4-yl)-4-(2-fluorophenyl)piperidine-4-carbonitrile] |
|  |  | < 0.5 | CS(=O)(=O)N1CCN(C(=O)c2cnc3ccc(F)cc3c2N2CCC(C#N)(c3ccc(Cl)cc3)CC2)CC1 [Example 275, 4-(4-chlorophenyl)-1-(6-fluoro-3-(4-(methylsulfonyl)piperazine-1-carbonyl)quinolin-4-yl)piperidine-4-carbonitrile] |
|  |  | < 0.5 | CS(=O)(=O)N1CCN(C(=O)c2cnc3ccc(F)cc3c2N2CCC(C#N)(c3ccc(F)cc3)CC2)CC1 [Example 279, 1-(6-fluoro-3-(4-(methylsulfonyl)piperazine-1-carbonyl)quinolin-4-yl)-4-(4-fluorophenyl)piperidine-4-carbonitrile] |
|  |  | < 0.5 | N#CC1(c2ccccc2)CCN(c2c(C(=O)N3CCN(C(=O)C4CC4)CC3)cnc3ccsc23)CC1 [Example 282, 1-(6-(4-(cyclopropanecarbonyl)piperazine-1-carbonyl)thieno[3,2-b]pyridin-7-yl)-4-phenylpiperidine-4-carbonitrile] |
|  |  | < 0.5 | CS(=O)(=O)N1CCN(C(=O)c2cnc3ccsc3c2N2CCC(C#N)(c3ccccc3)CC2)CC1 [Example 285, 1-(6-(4-(methylsulfonyl)piperazine-1-carbonyl)thieno[3,2-b]pyridin-7-yl)-4-phenylpiperidine-4-carbonitrile] |
|  |  | < 0.5 | CS(=O)(=O)N1CCN(C(=O)c2cnc3ccsc3c2-c2ccc(C3(C#N)CC3)cc2)CC1 [Example 286] |
|  |  | < 0.5 | N#CC1(c2ccc(-c3c(C(=O)N4CCN(C(=O)C5CC5)CC4)cnc4ccsc34)cc2)CC1 [Example 288, 1-(4-(6-(4-(cyclopropanecarbonyl)piperazine-1-carbonyl)thieno[3,2-b]pyridin-7-yl)phenyl)cyclopropanecarbonitrile] |
|  |  | 1 to 10 | CS(=O)(=O)N1CCN(C(=O)c2cnc3ccc(F)cc3c2N2CCC(O)(c3ccccc3)CC2)CC1 [Example 292, (6-fluoro-4-(4-hydroxy-4-phenylpiperidin-1-yl)quinolin-3-yl)(4-(methylsulfonyl)piperazin-1-yl)methanone] |
|  |  | < 0.5 | N#CC1(c2ccc(-c3c(C(=O)N4CCN(C(=O)C5CC5)CC4)cnc4ccc(Cl)cc34)cc2)CC1 [Example 294, 1-(4-(6-chloro-3-(4-(cyclopropanecarbonyl)piperazine-1-carbonyl)quinolin-4-yl)phenyl)cyclopropanecarbonitrile] |
|  |  | < 0.5 | CS(=O)(=O)N1CCN(C(=O)c2cnc3ccc(Cl)cc3c2-c2ccc(C3(C#N)CC3)cc2)CC1 [Example 297, 1-(4-(6-chloro-3-(4-(methylsulfonyl)piperazine-1-carbonyl)quinolin-4-yl)phenyl)cyclopropanecarbonitrile] |
|  |  | < 0.5 | CC1(C)CC=C(c2c(C(=O)N3CCN(S(C)(=O)=O)CC3)cnc3ccc(F)cc23)CC1 [Example 301, (4-(4,4-dimethylcyclohex-1-en-1-yl)-6-fluoroquinolin-3-yl)(4-(methylsulfonyl)piperazin-1-yl)methanone] |
